These results are taken from patent publication US20140343165A1, “PLANT PROTECTION AGENT” (priority 2010, published 2014).

Data set [1] relates to Erwinia amylovora. Put plainly: Growth inhibition in in vitro suspension cultures (OD600 growth curves). The format is cell-based. The settings on record: for Effect on growth of suspension culture: Example 2. As for the experimental part: Streptomycin as a conventional agent against Erwinia amylovora was used as a positive control (see FIGS. 1A to 1D).
The specific members of the three different classes of quinones were uniformly pre-dissolved in ethanol to give a 1 mM solution and subsequently diluted to the respective final concentrations in culture medium. Corresponding controls were conducted with equal volumes of ethanol in the absence of agent (FIG. 4, “KE”). Attention was particularly focused on a low concentration rage of less than 100 μM, in which unspecific and weak antibacterial effects are no longer of significance.
In the present experiments, the Austrian Erwinia amylovora standard strain 295/93 (AGES) was employed.
(§1) Erwinia amylovora was inoculated into 5 ml of KB medium and cultivated over night at 28° C. and 200 rpm. This culture was diluted with KB medium to OD600=0.3 and 2 ml thereof were further cultivated in sealed cuvettes in the presence of different agent concentrations immediately afterwards. […] Two controls were conducted: unchanged medium and medium with an ethanol concentration equal to that of the test preparations. The optical densities of the cultures OD600 were measured over time at predetermined intervals.

Data set [2] has as its system Erwinia amylovora. Description: In vitro infection tests on apple blossoms. Particulars: for Infested blossoms: 14 blossoms. How it is done: In these tests, streptomycin was used as a positive control.
The in vitro tests on apple blossoms represented the natural course of infection and were conducted as follows: blooming apple blossoms were cut and further cultivated standing in a sterile sugar solution in transparent plastic containers. […] Following another 35 hours of incubation, the blossoms were wet by spraying on water. The infection rate was determined after 8 to 10 days of incubation at 22° C. and 70% relative humidity.

The test system of data set [3] is apple blossoms (Smoothy and Idared). Description: Phytotoxicity on apple blossoms and subsequent fruit development. It is filed as in vivo, Malus x domestica. The settings on record: for Browning reaction on petals: Smoothy and Idared; for Fruit russeting: all tested concentrations. How it is done:
(§2) . In this test, the respective concentrations were employed that had been proven as completely effective (no bacterial growth) in the in vitro suspension cultures. […]. […] The maximum final concentrations of the solvent ethanol in the treatment solutions were 5%; corresponding control treatments were conducted with 0.5 or 5% ethanol in water. For each variant (agent, concentration, variety), two of the larger branches were treated. The test were conducted in the experimental fruit plantation of the University of Agriculture in Jedlersdorf, Austria. The trees of each series were of identical age as well as developmental and observable physiological state. The treatments were conducted in the morning between 8:00 and 9:30 at a relative humidity of 68 to 75% and temperatures of 12 to 13° C. On all days of treatment, the sprayed blossoms were directly exposed to sunlight afterwards. Phytotoxic effects were evaluated on the days following treatment. During the following months, fruit set and development was observed and compared to that of the control plants. In the evaluation, attention was particularly focused on visible alterations of the fruit epidermis.

Data set [4] has as its system pear blossoms (Williams Christ). Put plainly: Phytotoxicity on pear blossoms and subsequent fruit development. It is filed as in vivo, Pyrus communis. The settings on record: for Browning reaction on petals: Williams Christ; for Fruit russeting: all tested concentrations. As for the experimental part:
as §2

The subject of data set [5] is Erwinia amylovora. Description: Inoculation tests on pear fruits. It is filed as in vivo. The source says: As opposed to the blossom system, this test has to be performed with lesions of the plant tissue. It is known that any results obtained with this system have a lower reproducibility and are harder to evaluate. The corresponding results are photographically documented in FIG. 3. Two different pear varieties were used.
The development of black necrotic lesions of the plant tissue and the formation of white bacterial slime (exsudate) were taken as criteria for evaluating the degree of infection.
Erwinia amylovora was inoculated into 5 ml KB medium and cultivated over night at 28° C. and 200 rpm. Upon reaching a cell density corresponding to OD600 (1:10 dilution)=0.17 to 0.20, 1 ml of the undiluted culture was centrifuged and the bacterial pellet was resuspended in PBS (phosphate buffered saline). Unripe pear fruits (July) obtained from the experimental plantation (Jedlersdorf, BOKU) were harvested, washed with water, dried and used for inoculation (EPPO protocol 2004). In the inoculation procedure, two holes each having a volume of about 10 μl were pierced into each fruit using a pipette tip. 10 μl of the test solution were pipetted into each of the hollows thus formed, followed by incubation of the fruits for 15 min. Upon absorption of the test solutions by the tissue, each lesion was inoculated with 10 μl of Erwinia amylovora, suspended in PBS. The direct inoculation of fruits that had not been treated with the agent before served as a positive control. In the negative control, sterile water was used instead of the agent solution. A 0.01 mM streptomycin solution was used as a positive control. The inoculated fruits were incubated for 3 to 7 days at 25° C. and 100% relative humidity.

The test system of another data set is Erwinia carotovora. Put plainly: Growth inhibition in suspension culture. The format is cell-based. How it is done:
Various other species of Erwinia are also important phytopathogens. The bacterium Erwinia carotovora was selected as an example of a further Erwinia species.
as §1

In another data set the test system is bees. The settings on record: on contact or by ingestion.
Data set [6] has as its system Erwinia amylovora. Put plainly: Bacteriostatic versus bactericidal effect: plating aliquots of suspension cultures onto agent-free solid medium. The format is cell-based. The settings on record: for Colony formation of surviving cells after plating: already after 30 min. As for the experimental part: This may be determined by means of plating aliquots of the suspension cultures containing the agent onto agent-free solid media. […] A culture blended with a corresponding volume of the solvent for juglone (ethanol) served as a control. […]. […] Aliquots of the suspension culture having an equivalent ethanol concentration were withdrawn and plated to serve as a control. After two days of incubating the plates at 25° C., the respective colony formation was documented.

Where [7] appears, read: concentration not given, curative.

Consider `CC1=CC(=O)c2c(O)cccc2C1=O` [Plumbagin, 5-hydroxy-2-methyl-1,4-naphthoquinone], for which, in the data set on Erwinia amylovora [1] (suspension culture), the “Concentrations proven completely effective (no bacterial growth) in the in vitro suspension cultures” value lay in the range of 0.1 to 0.5 mM. For the same compound, the “Degree of efficacy (%)” value in the data set on Erwinia amylovora [2] (0.1 mM, curative) was 58%; in the data set on Erwinia amylovora [2] (0.5 mM, curative), 50%. In addition, the “Infestation (%)” value in the data set on Erwinia amylovora [2] (0.1 mM, curative) amounted to 36%; in the data set with Erwinia amylovora [2] (0.5 mM, curative), 43%. In addition, the Infested blossoms is listed as 5 with Erwinia amylovora [2] (0.1 mM, curative) and 6 with Erwinia amylovora [2] (0.5 mM, curative). Further, the “Browning reaction on petals” value is reported as “brown spots” in data set [3] (0.1 mM); “more distinct” in data set [3] (0.5 mM, compared with 0.1 mM); “brown spots” in data set [4] (0.1 mM); “more distinct” in data set [4] (0.5 mM, compared with 0.1 mM). Moreover, the Fruit russeting result in data set [3] and in data set [4] was “Neither the juglone nor the plumbagin treatments resulted in observable fruit russeting” throughout.

For `O=C1C=CC(=O)C=C1` [Benzoquinone, 1,4-benzoquinone], the phyotoxic result in the data set on Erwinia amylovora [2] (0.01 mM, apple blossoms) is listed as “no”. Moreover, in the data set with Erwinia amylovora [2] (0.01 mM, curative), the “Degree of efficacy (%)” value turned out to be 33%, the “Infestation (%)” value was determined as 57% and the Infested blossoms was 8. For the same compound, the phyotoxic entry in the data set on Erwinia amylovora [2] (0.05 mM, apple blossoms) is recorded as “yes”. In addition, in the data set with Erwinia amylovora [2] (0.05 mM, curative), the “Degree of efficacy (%)” value is 42%, the “Infestation (%)” value is on record as 50% and the Infested blossoms was determined as 7.

In the data set on Erwinia amylovora [2] (concentration not given, agent applied 2.5 h after Erwinia amylovora (curative)), `[H]/N=C(/N)N[C@H]1[C@H](O)[C@@H](O)[C@H](O[C@@H]2O[C@@H](C)[C@](O)(C=O)[C@H]2O[C@@H]2O[C@@H](CO)[C@H](O)[C@@H](O)[C@@H]2NC)[C@@H](N/C(N)=N\[H])[C@@H]1O` [Streptomycin, streptomycin] yielded an Infested blossoms of 3. In the data set on Erwinia amylovora [2] (setting [7]), the “Degree of efficacy (%)” value is 75% and the “Infestation (%)” value is 21%. Besides, in the data set on Erwinia amylovora [2] (in vivo), the phyotoxic entry is on record as “no”. In addition, in the data set with Erwinia amylovora [5] (0.01 mM), the Exsudate formation result was “no exsudate formation”. In the data set with Erwinia amylovora [5] (0.01 mM, Williams Christ and Bosc's Bottle Pear, versus inoculation without agent), the Necrotic lesions entry was “slightly diminished”.

As for `O=C1C=CC(=O)c2c(O)cccc21` [Juglone], the “Growth in suspension culture” value with Erwinia carotovora (0.1 mM) is given as “completely inhibited”; in the data set with Erwinia carotovora (concentrations lower than 0.1 mM), “not by lower concentrations”. The “Effect on growth of suspension culture” value with Erwinia amylovora [1] (5 μM) was “growth occurs after a prolonged incubation period”; with Erwinia amylovora [1] (10 μM (1.74 mg/1)) it was “completely bactericidal effect”; with Erwinia amylovora [1] (50 μM, 5% ethanol in medium), “distinct effect”. The “Concentrations proven completely effective (no bacterial growth) in the in vitro suspension cultures” value in the data set with Erwinia amylovora [1] (suspension culture) was in the range of 0.005 to 0.05 mM. Moreover, the “Activity against Erwinia amylovora (growth inhibition)” value in the data set with Erwinia amylovora [1] (suspension culture, compared with streptomycin) is on record as “activity corresponding to that of streptomycin in a sub-millimolar concentration range”. The “Degree of efficacy (%)” value amounted to 58% in the data set on Erwinia amylovora [2] (0.005 mM, curative) and 67% in the data set on Erwinia amylovora [2] (0.01 mM, curative). Also, the “Infestation (%)” value in the data set on Erwinia amylovora [2] (0.005 mM, curative) turned out to be 36%; with Erwinia amylovora [2] (0.01 mM, curative), 29%. Besides, the Infested blossoms in the data set on Erwinia amylovora [2] (0.005 mM, curative) was found to be 5; with Erwinia amylovora [2] (0.01 mM, curative), 4. Besides, the Toxicity to bees result with bees is “non-toxic to bees on contact or by ingestion”. For the same compound, the “Colony formation of surviving cells after plating” value in the data set on Erwinia amylovora [6] (0.01 mM in suspension culture) and in the data set with Erwinia amylovora [6] (0.1 mM in suspension culture) was “no colony formation of surviving cells after each prolonged incubation time” each time. The Bactericidal effect entry with Erwinia amylovora [6] (conclusion of plating tests) was “strong bactericidal effect”. For the same compound, the “Effect on infection of pear fruits” value in the data set on Erwinia amylovora [5] (0.1 mM, pre-incubation 15 min before inoculation) is “effect approximately comparable to that of 0.01 mM streptomycin”. For the same compound, the “Browning reaction on petals” value is “slightly brown spots” in data set [3] (0.025 mM), “more distinct spots” in data set [3] (0.05 mM) and “No effect” in data set [4] (tested 0.005/0.01 mM). Besides, the Fruit russeting entry in data set [3] and in data set [4] was “Neither the juglone nor the plumbagin treatments resulted in observable fruit russeting” each time.
